Experimental data reported in patent US6525042B1 (Daiichi Pharmaceutical Co., Ltd., priority 1997, dated 2003).

Assays:
[1] = test system: Plasma; test: Coagulation extending action (prothrombin time) in plasma; type: biochemical
Description: Measurement of Coagulation Extending Action (Measurement of Prothrombin Time)
Plasma (20 μl) and 20 μl of a sample solution were mixed. To the resulting mixture, […] of cynplastin (product of Organon Teknika) were added and the coagulation time was measured. The concentration of the sample (CT2) at which the coagulation time of the plasma was increased twice was found and it was designated as an index of anticoagulant action.

[2] = target: T1, human thrombin (Homo sapiens, UniProt P00734); test: Thrombin inhibitory action (IC50), end point method; type: biochemical; conditions: 37° C. for 10 minutes, read-out: thrombin 50% inhibitory concentration
T1 construct: purchased Sigma Chemical
Description: (§1) Measurement of Thrombin Inhibitory Action (IC50)
A sample solution (100 μl), 280 μl of a 100 mM tris −200 mM sodium chloride (pH 7.4) buffer and 100 μl of 1 mM S2238 (Chromogenix) solution were mixed and heated at 37° C. To the resulting mixture, 20 μl of 1 U/ml human thrombin (Sigma Chemical, dissolved in and diluted with a measuring buffer) were added, followed by heating at 37° C. for 10 minutes. To the resulting mixture, 100 μl of 1M citric acid were added and then, the absorbance at 405 nm was measured. The mixture to which only the diluting solvent was added instead of the sample was used as a blank, while the mixture to which 1M citric acid was added prior to the addition of thrombin was used as a control. The sample concentration (IC50) at which 50% of thrombin activity was inhibited was found and it was designated as an index of thrombin inhibitory action.

[3] = target: T2, human FXa (Homo sapiens, UniProt P00742); test: FXa inhibitory action (IC50), reaction rate method; type: biochemical; conditions: room temperature, read-out: FXa 50% inhibitory concentration
T2 construct: purchased Cosmobio-ERL HFXa-1011
T2 sequence (P00742 235-488 limits assumed): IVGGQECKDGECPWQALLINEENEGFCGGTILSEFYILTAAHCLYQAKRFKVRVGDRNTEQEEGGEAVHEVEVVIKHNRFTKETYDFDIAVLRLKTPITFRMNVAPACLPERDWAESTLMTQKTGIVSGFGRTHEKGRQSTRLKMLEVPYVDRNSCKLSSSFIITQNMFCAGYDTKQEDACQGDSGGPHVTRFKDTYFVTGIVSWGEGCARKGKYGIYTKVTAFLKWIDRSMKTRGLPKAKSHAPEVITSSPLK
T2 sequence (P00742 41-179 partner limits assumed): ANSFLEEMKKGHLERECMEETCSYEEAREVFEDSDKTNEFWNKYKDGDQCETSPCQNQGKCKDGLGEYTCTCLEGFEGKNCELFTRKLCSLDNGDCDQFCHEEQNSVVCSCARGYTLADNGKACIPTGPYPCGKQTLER
Description: (§2) Measurement of FXa Inhibitory Action (IC50)
In a 96-well microtiter plate, 10 μl of a sample solution, 40 μl of a 100 mM tris −200 mM sodium chloride −0.2% BSA (pH: 7.4) buffer and 10 μl of 0.05 U/ml human FXa (“Cosmobio-ERL HFXa-1011”, dissolved in and diluted with a measuring buffer) were poured in portions, followed by the addition of […] of S2222 (product of Chromogenix). An increase (mOD/min) in the absorbance at 405 nm was measured at room temperature. From the below-described equation, an inhibitory ratio % of each sample was determined. On a logarithmic probability paper, the final concentration of the sample and inhibitory ratio % were plotted along the abscissa and the ordinate, respectively, whereby a 50% inhibitory concentration (IC50) was determined.
(§3) Inhibitory ratio (%)=(1−OD of sample÷OD of control)×100

[4] = target: human Factor Xa (Homo sapiens, UniProt P00742); test: Oral administration test: anti-FXa activity in the plasma; type: in vivo; conditions: rat, 30 mg/kg, one hour after the administration
Chain of human Factor Xa (P00742 235-488 limits assumed): as the sequence (P00742 235-488 limits assumed) above
Chain of human Factor Xa (P00742 41-179 partner limits assumed): as the sequence (P00742 41-179 partner limits assumed) above
Description: (§4) Test of Oral Administration
(§5) A sample was dissolved or suspended in a 0.5% (w/v) methyl cellulose solution and the resulting solution or suspension was orally administered (10 ml/kg) to a 8 to 11 week-old rat (Wistar male rat (Nippon SLC Co., Ltd.)) which had been fasted overnight. After administration of the sample, the blood to which 1/10 part by weight of 3.13% (w/v) sodium citrate had been added was collected from the cervical vein. The rat was awakened except during the blood collection. Feeding was re-started 6 hours after the blood collection. From each blood sample, the plasma was separated by centrifugal separation and anti-FXa activity in the blood and prothrombin time extending action were measured.
2-1) Measurement of Anti-FXa Activity in the Plasma
In a 96-well plate, 5 μl of the plasma was poured in portions, followed by the addition of 55 μl of a 8:1:2 mixture of 100 mM tris −200 mM sodium chloride −0.2% BSA (pH 7.4) buffer, water and 0.1 U/ml human Factor Xa solution (dissolved in and diluted with a measuring buffer) and 40 μl of 750 μM S-2222. After stirring for 10 seconds in a plate mixer, an increase (mOD/min) of the absorbance at 405 nm was measured at room temperature. The inhibitory ratio was calculated as follows:
An inhibitory ratio (%)=(1−OD of sample÷OD of control on average relative to blood-collecting time of sample)×100

[5] = test system: plasma; test: Oral administration test: coagulation extending action (prothrombin time); type: in vivo; conditions: rat, 30 mg/kg, one hour after the administration
Description: as §4, §5
2-2) Measurement of Coagulation Extending Action in Oral Administration (Measurement of Prothrombin Time)
To 20 μl of the plasma, 40 μl of cynplastin (Organon Teknika/USA) were added and the coagulation time was measured. The ratio of the prothrombin time after the administration of the sample relative to the prothrombin time before the administration of the sample was designated as an index of the coagulation extending action.

[6] = target: T2, human FXa; test: FXa inhibitory action (IC50), end point method; type: biochemical; conditions: 37° C. for 15 minutes, read-out: FXa 50% inhibitory concentration
Description: as §2
A sample solution (100 μl), 280 μl of a 100 mM tris −200 mM sodium chloride (pH 7.4) buffer and 100 μl of a 1 mM S2222 (Chromogenix Corp.) solution were mixed and heated at 37° C. To the resulting mixture, 20 μl of 0.625 U/ml human FXa (“Cosmobio-ERL HFXa-1011”, dissolved in and diluted with a measuring buffer) were added, followed by heating at 37° C. for 15 minutes. To the resulting mixture, 100 μl of 1M citric acid were added and then, the absorbance at 405 nm was measured. The mixture to which only the diluting solvent for the sample was added instead of the sample was used as a blank, while the mixture to which 1M citric acid was added prior to the addition of FXa was used as a control. The concentration of the sample (IC50) at which 50% of FXa activity was inhibited was determined and it was designated as an index of FXa inhibitory action.

[7] = target: T1, human thrombin; test: Thrombin inhibitory action (IC50), reaction rate method; type: biochemical; conditions: room temperature, read-out: thrombin 50% inhibitory concentration
Description: as §1
In a 96-well microtiter plate, 10 μl of a sample solution, 40 μl of a 100 mM tris −200 mM sodium chloride −0.2% BSA (pH: 7.4) buffer and 10 μl of 4 U/ml human thrombin (Sigma Chemical, dissolved in and diluted with a measuring buffer) were poured, followed by the addition of 40 μl of 500 μM S2266 (product of Chromogenix). An increase (mOD/min) in the absorbance at 405 nm was measured at room temperature. From the below-described equation, an inhibitory ratio % of each sample was determined. On a logarithmic probability paper, the final concentration of the sample and inhibitory ratio were plotted along the abscissa and the ordinate, respectively, whereby a 50% inhibitory concentration (IC50) was found.
as §3

[8] = target: T2, human FXa; test: Measurement of Ki value against FXa; type: biochemical; conditions: substrate S2222, Dixon plot
Description: Measurement of Ki Value Against FXa
In a 96-well microtiter plate, 5 μl of a sample solution, 5 μl of purified water, 40 μl of a 100 mM tris −200 mM sodium chloride −0.2% BSA (pH: 7.4) buffer and 10 μl of 0.05 U/ml human FXa (product of Enzyme Research, dissolved in and diluted with a measuring buffer) were poured, followed by the addition of 40 μl of S2222 (product of Chromogenix, final concentration: 75, 150, 300 and 600 μM). […] The median of six values available by solving simultaneous equations was designated as a Ki value.

[9] = target: T1, human thrombin; test: Measurement of Ki value against thrombin; type: biochemical; conditions: Dixon plot
Description: Measurement of Ki Value Against Thrombin
In a 96-well microtiter plate, 5 μl of a sample solution, 5 μl of purified water, 40 μl of a 100 mM tris −200 mM sodium chloride −0.2% BSA (pH: 7.4) buffer and 10 μl of 5 U/ml human thrombin (product of Sigma Chemical, dissolved in and diluted with a measuring buffer) were poured in portions, followed by the addition of 40 μl of S2226 (product of Chromogenix, final concentration: 50, 100, 200 and 400 μM). […] The median of six values available by solving simultaneous equations was designated as a Ki value.

[10] = test system: tissue thromboplastin-derived rat DIC model; test: Anti-thrombus effects in a tissue thromboplastin-derived rat DIC model; type: in vivo; conditions: oral 30 mg/kg, tissue thromboplastin one hour after the sample
Description: Testing Method of Anti-thrombus Effects in a Tissue Thromboplastin-derived Rat DIC Model
A rat was anesthetized with halothane. After the collection of the blood (for measurement of the number of platelets, anti-FXa activity and TAT) from its cervical vein by using 1/10 part by weight of 3.13% (w/v) sodium citrate, the sample was administered orally. At an appropriate time after the administration, the rat was intraperioneally anesthetized (1 mg/kg) with Nembutal (50 mg/ml pentobarbital sodium, Abott Laboratories), followed by intravenous drip of 0.2 U/ml of tissue thromboplastin (Thromboplastin C plus, Dade Diagnostics of P. R. Inc.,) from the femoral vein for one minute at a rate of 2.5 to 3.0 ml/kg/min. The blood was collected (for measuring the number of platelets and anti-FXa activity) from the cervical vein 10 minutes after the intravenous drip and the blood was collected (for measuring TAT) from the cervical vein 20 minutes after the blood collection. The number of platelets, anti-FXa activity in the plasma and TAT concentration of each blood sample were measured. The number of the platelets was measured by an automatic cytometer, while the anti-FXa activity in the plasma was measured in a similar manner to that described in Test 7.
For the measurement of TAT (Thrombin-anti Thrombin=complex), EnzygnostR TAT micro kit (Boering Verke) was employed.

In the case of “2-[[4-[(6-Chloronaphthalen-2-yl)sulfonyl]piperazin-1-yl]carbonyl]-6,6-dimethyl-4,5,6,7-tetrahydrothiazolo[5,4-c]pyridinium iodide [Example 92]”, the “CT2 (concentration at which the coagulation time of the plasma was increased twice)” value [1] is reported as 0.35 µM, the IC50 [2] is reported as at least 200000 nM and the IC50 [3] is reported as 7.8 nM.

In the case of `Cl.O=C(C1CC=C(c2ccncc2)CC1)N1CCN(S(=O)(=O)c2ccc3cc(Cl)ccc3c2)CC1` (racemic) [Example 110, 1-[(6-Chloronaphthalen-2-yl)sulfonyl]-4-[[(1RS)-4-(pyridin-4-yl)-3-cyclohexene]carbonyl]piperazine hydrochloride], the “anti-FXa activity in the plasma” value [4] is reported as 70% and the “extension of the prothrombin time (ratio after/before administration)” value [5] is reported as 1.18 times.

`O=C(c1ccc(-c2cc[n+]([O-])cc2)cc1)N1CCN(S(=O)(=O)c2ccc3cc(Cl)ccc3c2)CC1` [Example 6, 4-[4-[[4-[(6-Chloronaphthalen-2-yl)sulfonyl]piperazin-1-yl]carbonyl]phenyl]pyridine N-oxide] gave an IC50 [6] of 125 nM.

`O=C(c1ccc(-c2cccc[n+]2[O-])cc1)N1CCN(S(=O)(=O)c2ccc3cc(Cl)ccc3c2)CC1` [Example 19, 2-[4-[[4-[(6-Chloronaphthalen-2-yl)sulfonyl]piperazin-1-yl]carbonyl]phenyl]pyridine N-oxide] showed an IC50 [7] of 1900 nM and an IC50 [6] of 72 nM.

`C[N+]1([O-])CCc2nc(C(=O)N3CCN(S(=O)(=O)c4ccc5cc(Cl)ccc5c4)CC3)sc2C1` (stereo not shown) [Example 93] showed a Ki [8] of 10.9 nM and a Ki [9] of 3300 nM.

`CC1Cc2nc(C(=O)N3CCN(S(=O)(=O)c4ccc5cc(Cl)ccc5c4)CC3C(N)=O)sc2CN1.Cl` (stereo not shown) [Example 95, 2-Carbamoyl-4-[(6-chloronaphthalen-2-yl)sulfonyl]-1-[(6-methyl-4,5,6,7-tetrahydrothiazolo[5,4-c]pyridin-2-yl)carbonyl]piperazine hydrochloride] was tested, and the “anti-FXa action in the plasma” value [10] was “apparent anti-FXa action in the plasma was recognized”, the “decrease in the number of the platelets” value [10] was “suppressed” and the “increase in the TAT concentration” value [10] was “suppressed”.
